Legend:
barnyardgrass [1] = assay: Test B pre-/postemergence herbicide test; assay type: in vivo, Echinochloa crus-galli; settings: for Plant response rating (0 to 100 scale), Barnyardgrass: 0 is no effect, 100 is complete control, preemergence; for Barnyardgrass plant response rating: scale 0 (no effect) to 100 (complete control)
Method in brief: (§1)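 Response was scored visually 13 to 15 days after treatment against untreated greenhouse controls, 0 meaning no effect and 100 complete control. Formulations (solvent mixture plus surfactant) went onto soil after planting, onto foliage of 1- to 4-leaf plants, and onto 2-leaf plants in a flooded paddy set including rice and barnyardgrass.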

Surinam grass = assay: Test B pre-/postemergence herbicide test; assay type: in vivo, Urochloa decumbens; settings: for Plant response rating (0 to 100 scale), Surinam Grass: 0 is no effect, 100 is complete control, preemergence
Method in brief: (§2)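 Formulation: non-phytotoxic solvent mix with surfactant. Timing: preemergence on seed and postemergence on 2–18 cm plants, applied concurrently. Readout after 13–15 d greenhouse: visual 0–100 control rating against controls.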

cocklebur = assay: Test B pre-/postemergence herbicide test; assay type: in vivo, Xanthium strumarium; settings: for Plant response rating (0 to 100 scale), Cocklebur: 0 is no effect, 100 is complete control, preemergence
Method in brief: as §1

corn = assay: Test B pre-/postemergence herbicide test; assay type: in vivo, Zea mays; settings: for Plant response rating (0 to 100 scale), Corn: 0 is no effect, 100 is complete control, preemergence
Method in brief: as §2

large crabgrass = assay: Test B pre-/postemergence herbicide test; assay type: in vivo, Digitaria sanguinalis; settings: for Plant response rating (0 to 100 scale), Crabgrass, Large: 0 is no effect, 100 is complete control, preemergence
Method in brief: as §2

giant foxtail = assay: Test B pre-/postemergence herbicide test; assay type: in vivo, Setaria faberi; settings: for Plant response rating (0 to 100 scale), Foxtail, Giant: 0 is no effect, 100 is complete control, preemergence
Method in brief: as §2

lambsquarters = assay: Test B pre-/postemergence herbicide test; assay type: in vivo, Chenopodium album; settings: for Plant response rating (0 to 100 scale), Lambsquarters: 0 is no effect, 100 is complete control, preemergence
Method in brief: as §2

morningglory = assay: Test B pre-/postemergence herbicide test; assay type: in vivo, Ipomoea coccinea; settings: for Plant response rating (0 to 100 scale), Morningglory: 0 is no effect, 100 is complete control, preemergence
Method in brief: as §1

pigweed = assay: Test B pre-/postemergence herbicide test; assay type: in vivo, Amaranthus retroflexus; settings: for Plant response rating (0 to 100 scale), Pigweed: 0 is no effect, 100 is complete control, preemergence
Method in brief: as §2

velvetleaf = assay: Test B pre-/postemergence herbicide test; assay type: in vivo, Abutilon theophrasti; settings: for Plant response rating (0 to 100 scale), Velvetleaf: 0 is no effect, 100 is complete control, preemergence
Method in brief: as §2

blackgrass = assay: Test B postemergence herbicide test; assay type: in vivo, Alopecurus myosuroides
Method in brief: (§3)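 Visual control ratings, 0–100 versus untreated controls, taken after 13 to 15 days in the greenhouse. Blackgrass received a postemergence spray at the 1- to 4-leaf stage (2–18 cm); ducksalad, umbrella sedge and barnyardgrass were flooded-paddy treated at 2 leaves.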

wheat = assay: Test B postemergence herbicide test; assay type: in vivo, Triticum aestivum; parameters: key to Wheat plant response rating: 0 = no effect, 100 = complete control
Method in brief: (§4)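 Formulated test chemicals went onto postemergence plants measuring 2 to 18 cm, at one to four leaves. For the paddy assay, species had reached two leaves. Scoring took place 13–15 days later by eye, relative to untreated plants, using 0 for no effect up to 100 for full control.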

wild oat = assay: Test B postemergence herbicide test; assay type: in vivo, Avena fatua
Method in brief: as §4

rice = assay: Test B flooded paddy test; assay type: in vivo, Oryza sativa; settings: 1000 g ai/ha, scale 0 to 100 (0 no effect, 100 complete control)
Method in brief: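 Scale 0–100: zero equals no visible effect, 100 complete control, judged by eye relative to controls. Timing: 13 to 15 days in greenhouse post-treatment. Growth stage at spraying: two leaves (paddy) or one to four leaves, 2–18 cm (postemergence).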

[2] = test system: small flower umbrella sedge; assay: Test B flooded paddy test; assay type: in vivo, Cyperus difformis; settings: 1000 g ai/ha, scale 0 to 100 (0 no effect, 100 complete control)
Method in brief: as §3

ducksalad = assay: Test B flooded paddy test; assay type: in vivo, Heteranthera limosa; settings: 1000 g ai/ha, scale 0 to 100 (0 no effect, 100 complete control)
Method in brief: as §3

barnyardgrass [3] = assay: Test B flooded paddy test; assay type: in vivo, Echinochloa crus-galli; settings: 1000 g ai/ha, scale 0 to 100 (0 no effect, 100 complete control)
Method in brief: as §3

[4] = 125 g ai/ha, visual rating, postemergence
[5] = 125 g ai/ha, visual rating, scale 0 (no effect) to 100 (complete control), postemergence
[6] = Postemergence, 500 g ai/ha, scale 0 (no effect) to 100 (complete control)
[7] = 500 g ai/ha, scale 0 to 100, 0 no effect, 100 complete control, preemergence
[8] = postemergence, 125 g ai/ha, scale 0 to 100

With `Cc1nn(C(C)C)nc1C(=O)Nc1cc(C(=O)N(C)C)ccc1F` [Compound 400] the “Plant response rating (0 to 100 scale), Barnyardgrass” value (barnyardgrass [1]; 125 g ai/ha) was 0, the “Barnyardgrass plant response rating” value (barnyardgrass [1]; [4]) was 0 and the “Barnyardgrass plant response rating” value (barnyardgrass [1]; Postemergence, 500 g ai/ha) was 0. For the same compound, the “Plant response rating (0 to 100 scale), Surinam Grass” value (Surinam grass; 125 g ai/ha) was 0, the “Surinam Grass plant response rating” value (Surinam grass; [5]) was 0 and the “Surinam Grass plant response rating” value (Surinam grass; [6]) was 0. The “Plant response rating (0 to 100 scale), Cocklebur” value (cocklebur; 125 g ai/ha) was 0, the “Cocklebur plant response rating” value (cocklebur; [5]) was 0 and the “Cocklebur plant response rating” value (cocklebur; [6]) was 0. For the same compound, the “Plant response rating (0 to 100 scale), Corn” value (corn; 125 g ai/ha) was 0, the “Corn plant response rating” value (corn; [5]) was 0 and the “Corn plant response rating” value (corn; [6]) was 0. For the same compound, the “Plant response rating (0 to 100 scale), Crabgrass, Large” value (large crabgrass; 125 g ai/ha) was 0, the “Crabgrass, Large plant response rating” value (large crabgrass; [5]) was 0 and the “Crabgrass, Large plant response rating” value (large crabgrass; [6]) was 0. The “Plant response rating (0 to 100 scale), Foxtail, Giant” value (giant foxtail; 125 g ai/ha) was 0, the “Foxtail, Giant plant response rating” value (giant foxtail; [5]) was 0 and the “Foxtail, Giant plant response rating” value (giant foxtail; [6]) was 0. For the same compound, the “Plant response rating (0 to 100 scale), Lambsquarters” value (lambsquarters; 125 g ai/ha) was 0, the “Lambsquarters plant response rating” value (lambsquarters; [5]) was 0 and the “Lambsquarters plant response rating” value (lambsquarters; [6]) was 10. The “Plant response rating (0 to 100 scale), Morningglory” value (morningglory; 125 g ai/ha) was 0, the “Morningglory plant response rating” value (morningglory; [5]) was 0 and the “Morningglory plant response rating” value (morningglory; [6]) was 0. For the same compound, the “Plant response rating (0 to 100 scale), Pigweed” value (pigweed; 125 g ai/ha) was 0, the “Pigweed plant response rating” value (pigweed; [5]) was 0 and the “Pigweed plant response rating” value (pigweed; [6]) was 20. The “Plant response rating (0 to 100 scale), Velvetleaf” value (velvetleaf; 125 g ai/ha) was 0, the “Velvetleaf plant response rating” value (velvetleaf; [5]) was 0 and the “Velvetleaf plant response rating” value (velvetleaf; [6]) was 30. For the same compound, the “Blackgrass plant response rating” value (blackgrass; [5]) was 0, the “Blackgrass plant response rating” value (blackgrass; [6]) was 0 and the “Wheat plant response rating” value (wheat; [5]) was 0. The “Wheat plant response rating” value (wheat; [7]) was 0, the “Wheat plant response rating” value (wheat; [6]) was 0 and the “Oat, Wild plant response rating” value (wild oat; [5]) was 0. The “Oat, Wild plant response rating” value (wild oat; [6]) was 0, the “Rice plant response rating” value (rice) was 0 and the “Sedge, Umbrella plant response rating” value [2] was 80. The “Ducksalad plant response rating” value (ducksalad) was 20 and the “Barnyardgrass plant response rating” value (barnyardgrass [3]) was 0.
In the case of `CCN(C)C(=O)c1ccc(F)c(NC(=O)c2nn(C(C)C)nc2C)c1` [Compound 403], the “Plant response rating (0 to 100 scale), Barnyardgrass” value (barnyardgrass [1]; 125 g ai/ha) is reported as 0, the “Barnyardgrass plant response rating” value (barnyardgrass [1]; [4]) is reported as 0 and the “Barnyardgrass plant response rating” value (barnyardgrass [1]; Postemergence, 500 g ai/ha) is reported as 0. For the same compound, the “Plant response rating (0 to 100 scale), Surinam Grass” value (Surinam grass; 125 g ai/ha) was 0, the “Surinam Grass plant response rating” value (Surinam grass; [5]) was 0 and the “Surinam Grass plant response rating” value (Surinam grass; [6]) was 10. The “Plant response rating (0 to 100 scale), Cocklebur” value (cocklebur; 125 g ai/ha) was 0, the “Cocklebur plant response rating” value (cocklebur; [5]) was 0 and the “Cocklebur plant response rating” value (cocklebur; [6]) was 0. The “Plant response rating (0 to 100 scale), Corn” value (corn; 125 g ai/ha) was 0, the “Corn plant response rating” value (corn; [5]) was 0 and the “Corn plant response rating” value (corn; [6]) was 0. The “Plant response rating (0 to 100 scale), Crabgrass, Large” value (large crabgrass; 125 g ai/ha) was 0, the “Crabgrass, Large plant response rating” value (large crabgrass; [5]) was 0 and the “Crabgrass, Large plant response rating” value (large crabgrass; [6]) was 0. For the same compound, the “Plant response rating (0 to 100 scale), Foxtail, Giant” value (giant foxtail; 125 g ai/ha) was 0, the “Foxtail, Giant plant response rating” value (giant foxtail; [5]) was 0 and the “Foxtail, Giant plant response rating” value (giant foxtail; [6]) was 0. For the same compound, the “Plant response rating (0 to 100 scale), Lambsquarters” value (lambsquarters; 125 g ai/ha) was 0, the “Lambsquarters plant response rating” value (lambsquarters; [5]) was 0 and the “Lambsquarters plant response rating” value (lambsquarters; [6]) was 10. For the same compound, the “Plant response rating (0 to 100 scale), Morningglory” value (morningglory; 125 g ai/ha) was 0, the “Morningglory plant response rating” value (morningglory; [5]) was 0 and the “Morningglory plant response rating” value (morningglory; [6]) was 0. The “Plant response rating (0 to 100 scale), Pigweed” value (pigweed; 125 g ai/ha) was 0, the “Pigweed plant response rating” value (pigweed; [5]) was 0 and the “Pigweed plant response rating” value (pigweed; [6]) was 0. For the same compound, the “Plant response rating (0 to 100 scale), Velvetleaf” value (velvetleaf; 125 g ai/ha) was 0, the “Velvetleaf plant response rating” value (velvetleaf; [5]) was 0 and the “Velvetleaf plant response rating” value (velvetleaf; [6]) was 10. The “Blackgrass plant response rating” value (blackgrass; [5]) was 0, the “Blackgrass plant response rating” value (blackgrass; [6]) was 0 and the “Wheat plant response rating” value (wheat; [5]) was 0. The “Wheat plant response rating” value (wheat; [7]) was 0, the “Wheat plant response rating” value (wheat; [6]) was 0 and the “Oat, Wild plant response rating” value (wild oat; [5]) was 0. For the same compound, the “Oat, Wild plant response rating” value (wild oat; [6]) was 0, the “Rice plant response rating” value (rice) was 0 and the “Sedge, Umbrella plant response rating” value [2] was 10. The “Ducksalad plant response rating” value (ducksalad) was 0 and the “Barnyardgrass plant response rating” value (barnyardgrass [3]) was 0.
For `CCOC(=O)c1cncc(NC(=O)c2nn(C(C)(C)C)nc2C)c1` [Compound 422], the “Plant response rating (0 to 100 scale), Barnyardgrass” value (barnyardgrass [1]; 125 g ai/ha) was 0, the “Barnyardgrass plant response rating” value (barnyardgrass [1]; Postemergence, 125 g ai/ha) was 0 and the “Barnyardgrass plant response rating” value (barnyardgrass [1]; Postemergence, 500 g ai/ha) was 0. The “Plant response rating (0 to 100 scale), Surinam Grass” value (Surinam grass; 125 g ai/ha) was 0, the “Surinam Grass plant response rating” value (Surinam grass; [6]) was 0 and the “Surinam Grass plant response rating” value (Surinam grass; [8]) was 0. For the same compound, the “Plant response rating (0 to 100 scale), Cocklebur” value (cocklebur; 125 g ai/ha) was 0, the “Cocklebur plant response rating” value (cocklebur; [6]) was 0 and the “Cocklebur plant response rating” value (cocklebur; [8]) was 0. The “Plant response rating (0 to 100 scale), Corn” value (corn; 125 g ai/ha) was 0, the “Corn plant response rating” value (corn; [6]) was 0 and the “Corn plant response rating” value (corn; [8]) was 0. For the same compound, the “Plant response rating (0 to 100 scale), Crabgrass, Large” value (large crabgrass; 125 g ai/ha) was 0, the “Crabgrass, Large plant response rating” value (large crabgrass; [6]) was 0 and the “Crabgrass, Large plant response rating” value (large crabgrass; [8]) was 0. For the same compound, the “Plant response rating (0 to 100 scale), Foxtail, Giant” value (giant foxtail; 125 g ai/ha) was 0, the “Foxtail, Giant plant response rating” value (giant foxtail; [6]) was 0 and the “Foxtail, Giant plant response rating” value (giant foxtail; [8]) was 0. The “Plant response rating (0 to 100 scale), Lambsquarters” value (lambsquarters; 125 g ai/ha) was 0, the “Lambsquarters plant response rating” value (lambsquarters; [6]) was 0 and the “Lambsquarters plant response rating” value (lambsquarters; [8]) was 0. For the same compound, the “Plant response rating (0 to 100 scale), Morningglory” value (morningglory; 125 g ai/ha) was 0, the “Morningglory plant response rating” value (morningglory; [6]) was 0 and the “Morningglory plant response rating” value (morningglory; [8]) was 0. The “Plant response rating (0 to 100 scale), Pigweed” value (pigweed; 125 g ai/ha) was 0, the “Pigweed plant response rating” value (pigweed; [6]) was 0 and the “Pigweed plant response rating” value (pigweed; [8]) was 0. For the same compound, the “Plant response rating (0 to 100 scale), Velvetleaf” value (velvetleaf; 125 g ai/ha) was 0, the “Velvetleaf plant response rating” value (velvetleaf; [6]) was 0 and the “Velvetleaf plant response rating” value (velvetleaf; [8]) was 0. For the same compound, the “Blackgrass plant response rating” value (blackgrass; [6]) was 20, the “Blackgrass plant response rating” value (blackgrass; [8]) was 20 and the “Wheat plant response rating” value (wheat; [7]) was 0. For the same compound, the “Wheat plant response rating” value (wheat; [6]) was 0, the “Wheat plant response rating” value (wheat; [8]) was 0 and the “Oat, Wild plant response rating” value (wild oat; [6]) was 0. The “Oat, Wild plant response rating” value (wild oat; [8]) was 0, the “Rice plant response rating” value (rice) was 30 and the “Sedge, Umbrella plant response rating” value [2] was 70. For the same compound, the “Ducksalad plant response rating” value (ducksalad) was 20 and the “Barnyardgrass plant response rating” value (barnyardgrass [3]) was 30.

Source: patent US20060069132A1, “Azolecarboxamide herbicides” (priority 2004, published 2006)
